Several values for one entry are separate records, joined by “and”; a condition that tells them apart may be missing. Equal entries are not always repeated. Activity calls are given as the source filed them. The rule behind the calls is not given here.
Tested on: rodent lifetime carcinogenesis bioassay, tumor incidence TD50
Experiment: chronic cancer bioassays in animals – CPDB, compiled studies (AID 1745844)
Settings: rat

Structure (SMILES): ClCCl
- carcinogen call (strain Fischer 344, females, in drinking water, site: liver, lesion: hepatocellular carcinoma, dosed 78 weeks, study length 104 weeks): negative (inactive)
- TD50 (strain Fischer 344, females, in drinking water, site: liver, lesion: hepatocellular carcinoma, dosed 104 weeks, study length 104 weeks): 3630 mg/kg/day (inactive)
- carcinogen call (strain Fischer 344, females, in drinking water, site: liver, lesion: neoplastic nodule, dosed 78 weeks, study length 78 weeks): negative (inactive)
- TD50 (strain Fischer 344, females, in drinking water, site: liver, lesion: neoplastic nodule, dosed 78 weeks, study length 104 weeks): 1540 mg/kg/day (inactive)
- TD50 (strain Fischer 344, females, in drinking water, site: liver, lesion: neoplastic nodule, dosed 104 weeks, study length 104 weeks): 2340 mg/kg/day (inactive)
- TD50 (strain Fischer 344, females, in drinking water, site: liver, lesion: several types, types named in the paper, dosed 78 weeks, study length 104 weeks): 1540 mg/kg/day (inactive)
- TD50 (strain Fischer 344, females, in drinking water, site: liver, lesion: several types, types named in the paper, dosed 104 weeks, study length 104 weeks): 1430 mg/kg/day (inactive)
- TD50 (strain Fischer 344, females, inhaled, site: all sites, lesion: mononuclear-cell leukemia, dosed 102 weeks, study length 104 weeks): 1280 mg/kg/day
- TD50 (strain Fischer 344, females, inhaled, site: any site (literature study), lesion: several types, types named in the paper, dosed 102 weeks, study length 104 weeks): 501 mg/kg/day
- TD50 (strain Fischer 344, females, inhaled, site: liver, lesion: hepatocellular adenoma + hepatocellular carcinoma + neoplastic nodule, dosed 102 weeks, study length 104 weeks): 4270 mg/kg/day
- TD50 (strain Fischer 344, females, inhaled, site: liver, lesion: hepatocellular carcinoma + neoplastic nodule, dosed 102 weeks, study length 104 weeks): 4270 mg/kg/day
- TD50 (strain Fischer 344, females, inhaled, site: mammary gland, lesion: adenocarcinoma, NOS + adenoma, NOS + fibroadenoma + mixed tumor, malignant, dosed 102 weeks, study length 104 weeks): 670 mg/kg/day
- TD50 (strain Fischer 344, females, inhaled, site: mammary gland, lesion: adenocarcinoma, NOS + adenoma, NOS + fibroadenoma, dosed 102 weeks, study length 104 weeks): 630 mg/kg/day
- TD50 (strain Fischer 344, females, inhaled, site: mammary gland, lesion: adenoma, NOS + fibroadenoma, dosed 102 weeks, study length 104 weeks): 598 mg/kg/day
- TD50 (strain Fischer 344, females, inhaled, site: mammary gland, lesion: fibroadenoma, dosed 102 weeks, study length 104 weeks): 632 mg/kg/day
- carcinogen call (strain Fischer 344, males, in drinking water, site: liver, lesion: hepatocellular carcinoma, dosed 78 weeks, study length 104 weeks): negative (inactive)
- carcinogen call (strain Fischer 344, males, in drinking water, site: liver, lesion: hepatocellular carcinoma, dosed 104 weeks, study length 104 weeks): negative (inactive)
- carcinogen call (strain Fischer 344, males, in drinking water, site: liver, lesion: neoplastic nodule, dosed 78 weeks, study length 78 weeks): negative (inactive)
- TD50 (strain Fischer 344, males, in drinking water, site: liver, lesion: neoplastic nodule, dosed 78 weeks, study length 104 weeks): 1610 mg/kg/day (inactive)
- carcinogen call (strain Fischer 344, males, in drinking water, site: liver, lesion: neoplastic nodule, dosed 104 weeks, study length 104 weeks): negative (inactive)
- TD50 (strain Fischer 344, males, in drinking water, site: liver, lesion: several types, types named in the paper, dosed 78 weeks, study length 104 weeks): 3660 mg/kg/day (inactive)
- carcinogen call (strain Fischer 344, males, in drinking water, site: liver, lesion: several types, types named in the paper, dosed 104 weeks, study length 104 weeks): negative (inactive)
- TD50 (strain Fischer 344, males, inhaled, site: any site (literature study), lesion: several types, types named in the paper, dosed 102 weeks, study length 104 weeks): 539 mg/kg/day
- TD50 (strain Fischer 344, males, inhaled, site: mammary gland + subcutaneous tissue, lesion: adenoma, NOS + fibroadenoma + fibroma, dosed 102 weeks, study length 104 weeks): 917 mg/kg/day
- TD50 (strain Fischer 344, males, inhaled, site: mammary gland, lesion: adenoma, NOS + fibroadenoma, dosed 102 weeks, study length 104 weeks): 1640 mg/kg/day
- TD50 (strain Fischer 344, males, inhaled, site: mammary gland, lesion: fibroadenoma, dosed 102 weeks, study length 104 weeks): 1770 mg/kg/day
- TD50 (strain Fischer 344, males, inhaled, site: multiple organs + tunica vaginalis, lesion: mesothelioma, NOS + mesothelioma, malignant, dosed 102 weeks, study length 104 weeks): 1440 mg/kg/day
- TD50 (strain Fischer 344, males, inhaled, site: subcutaneous tissue, lesion: fibroma + sarcoma, NOS, dosed 102 weeks, study length 104 weeks): 1990 mg/kg/day
- TD50 (strain Fischer 344, males, inhaled, site: subcutaneous tissue, lesion: fibroma, dosed 102 weeks, study length 104 weeks): 2180 mg/kg/day
- TD50 (strain Fischer 344, males, inhaled, site: tunica vaginalis, lesion: mesothelioma, NOS + mesothelioma, malignant, dosed 102 weeks, study length 104 weeks): 1640 mg/kg/day
- TD50 (strain Fischer 344, males, inhaled, site: tunica vaginalis, lesion: mesothelioma, malignant, dosed 102 weeks, study length 104 weeks): 4310 mg/kg/day
- TD50 (strain Sprague-Dawley Spartan, females, inhaled, site: liver, lesion: Kupffer-cell sarcoma, dosed 104 weeks, study length 104 weeks): 9340 mg/kg/day (inactive)
- carcinogen call (strain Sprague-Dawley Spartan, females, inhaled, site: liver, lesion: hepatocellular carcinoma, dosed 52 weeks, study length 104 weeks): negative (inactive)
- TD50 (strain Sprague-Dawley Spartan, females, inhaled, site: liver, lesion: hepatocellular carcinoma, dosed 104 weeks, study length 104 weeks): 9520 mg/kg/day (inactive)
- carcinogen call (strain Sprague-Dawley Spartan, females, inhaled, site: liver, lesion: neoplastic nodule, dosed 52 weeks, study length 104 weeks): negative (inactive)
- carcinogen call (strain Sprague-Dawley Spartan, females, inhaled, site: liver, lesion: neoplastic nodule, dosed 104 weeks, study length 104 weeks): negative (inactive)
- TD50 (strain Sprague-Dawley Spartan, females, inhaled, site: mammary gland, lesion: adenocarcinoma, dosed 52 weeks, study length 104 weeks): 1140 mg/kg/day (inactive)
- carcinogen call (strain Sprague-Dawley Spartan, females, inhaled, site: mammary gland, lesion: adenocarcinoma, dosed 104 weeks, study length 104 weeks): negative (inactive)
- TD50 (strain Sprague-Dawley Spartan, females, inhaled, site: mammary gland, lesion: benign tumor, dosed 52 weeks, study length 104 weeks): 38.1 mg/kg/day
- TD50 (strain Sprague-Dawley Spartan, females, inhaled, site: mammary gland, lesion: benign tumor, dosed 104 weeks, study length 104 weeks): 4430 mg/kg/day and 1550 mg/kg/day
- TD50 (strain Sprague-Dawley Spartan, females, inhaled, site: mammary gland, lesion: fibroadenoma, dosed 52 weeks, study length 104 weeks): 37.7 mg/kg/day
- TD50 (strain Sprague-Dawley Spartan, females, inhaled, site: mammary gland, lesion: fibroadenoma, dosed 104 weeks, study length 104 weeks): 631 mg/kg/day
- carcinogen call (strain Sprague-Dawley Spartan, males, inhaled, site: liver, lesion: one or several types, types not named, dosed 86 weeks, study length 86 weeks): negative (inactive)
- TD50 (strain Sprague-Dawley Spartan, males, inhaled, site: mammary gland, lesion: benign tumor, dosed 104 weeks, study length 104 weeks): 5080 mg/kg/day
- TD50 (strain Sprague-Dawley Spartan, males, inhaled, site: salivary gland, lesion: several types, types named in the paper, dosed 104 weeks, study length 104 weeks): 4260 mg/kg/day
- TD50 (strain Sprague-Dawley, females, by gavage, site: any site (literature study), lesion: malignant tumor, dosed 64 weeks, study length 104 weeks): 1740 mg/kg/day
- TD50 (strain Sprague-Dawley, females, by gavage, site: mammary tissue, wider than the gland, lesion: malignant tumor, dosed 64 weeks, study length 104 weeks): 1130 mg/kg/day
- TD50 (strain Sprague-Dawley, females, by gavage, site: mammary tissue, wider than the gland, lesion: several types, types named in the paper, dosed 64 weeks, study length 104 weeks): 1030 mg/kg/day
- TD50 (strain Sprague-Dawley, females, inhaled, site: any site (literature study), lesion: malignant tumor, dosed 104 weeks, study length 104 weeks): 477 mg/kg/day
- TD50 (strain Sprague-Dawley, females, inhaled, site: any site (literature study), lesion: several types, types named in the paper, dosed 104 weeks, study length 104 weeks): 32.1 mg/kg/day
- TD50 (strain Sprague-Dawley, females, inhaled, site: mammary tissue, wider than the gland, lesion: several types, types named in the paper, dosed 104 weeks, study length 104 weeks): 37.8 mg/kg/day
- TD50 (strain Sprague-Dawley, males, by gavage, site: any site (literature study), lesion: malignant tumor, dosed 64 weeks, study length 104 weeks): 935 mg/kg/day
